Measured values: patent US10669272B2, “Substituted naphthyridinone compounds useful as T cell activators” (BRISTOL-MYERS SQUIBB COMPANY, priority 2018, dated 2020)
Read-outs that look alike come from different tables or passages of the source.

Key:
naïve human CD8 T cells = assay: Human CD8 T cells IFN-γ assay; format: cell-based; conditions: normalized to 3 μM reference compound with anti-CD3 plus anti-CD28 as 100% activation, read-out: HuCD8 INFG Normalized EC50;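 also: Naïve human CD8 T cells stimulated with plate-bound anti-CD3 and soluble anti-CD28, IFN-γ in supernatant quantified by AlphaLISA and converted to pg/mL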
human DGKζ = target: T1, human DGKζ (Homo sapiens, UniProt Q13574); assay: DGKζ LIPGLO assay (extruded liposome substrate), in vitro DGK inhibition; format: biochemical; conditions: liposome (LIPGLO) assay; read-out: DGKz LIPGLO IC50
T1 construct: TVMV protease cleavage site (C); Hexa-His (C); made in house; host or cells: Sf9 insect cells (baculovirus, Bac-to-Bac)
T1 sequence (Q13574 with tags, fused parts or gaps isoform Q13574-4): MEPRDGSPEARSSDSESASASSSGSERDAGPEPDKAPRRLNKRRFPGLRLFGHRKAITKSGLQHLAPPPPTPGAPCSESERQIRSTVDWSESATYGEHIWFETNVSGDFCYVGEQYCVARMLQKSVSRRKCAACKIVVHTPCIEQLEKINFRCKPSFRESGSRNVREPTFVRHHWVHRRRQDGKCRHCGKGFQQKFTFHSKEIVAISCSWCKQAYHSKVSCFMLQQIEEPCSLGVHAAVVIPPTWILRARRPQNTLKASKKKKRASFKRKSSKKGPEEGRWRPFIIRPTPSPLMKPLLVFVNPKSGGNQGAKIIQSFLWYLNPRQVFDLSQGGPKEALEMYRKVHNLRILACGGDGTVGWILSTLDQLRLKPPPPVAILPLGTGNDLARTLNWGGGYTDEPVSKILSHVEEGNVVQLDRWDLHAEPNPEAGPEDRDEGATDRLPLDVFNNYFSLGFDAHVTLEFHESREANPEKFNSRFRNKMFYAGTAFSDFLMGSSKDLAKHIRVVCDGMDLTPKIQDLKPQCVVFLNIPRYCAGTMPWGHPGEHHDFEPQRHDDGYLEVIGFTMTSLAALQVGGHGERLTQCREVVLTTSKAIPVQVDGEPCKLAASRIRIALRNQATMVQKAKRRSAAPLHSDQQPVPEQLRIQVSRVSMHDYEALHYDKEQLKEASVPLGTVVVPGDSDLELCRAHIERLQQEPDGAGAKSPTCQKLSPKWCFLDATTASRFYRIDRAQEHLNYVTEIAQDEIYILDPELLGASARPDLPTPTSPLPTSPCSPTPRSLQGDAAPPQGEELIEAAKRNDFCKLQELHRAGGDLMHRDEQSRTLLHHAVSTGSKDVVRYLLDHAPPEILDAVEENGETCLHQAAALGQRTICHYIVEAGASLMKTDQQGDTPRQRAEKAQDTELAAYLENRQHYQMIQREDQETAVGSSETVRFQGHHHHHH

human DGKα = target: T2, human DGKα (Homo sapiens, UniProt P23743); assay: DGKα LIPGLO assay (extruded liposome substrate), in vitro DGK inhibition; format: biochemical; conditions: liposome (LIPGLO) assay; read-out: DGKa LIPGLO IC50
T2 construct: TVMV protease cleavage site (C); Hexa-His (C); made in house; host or cells: Sf9 insect cells (baculovirus, Bac-to-Bac)
T2 sequence (P23743 with tags, fused parts or gaps): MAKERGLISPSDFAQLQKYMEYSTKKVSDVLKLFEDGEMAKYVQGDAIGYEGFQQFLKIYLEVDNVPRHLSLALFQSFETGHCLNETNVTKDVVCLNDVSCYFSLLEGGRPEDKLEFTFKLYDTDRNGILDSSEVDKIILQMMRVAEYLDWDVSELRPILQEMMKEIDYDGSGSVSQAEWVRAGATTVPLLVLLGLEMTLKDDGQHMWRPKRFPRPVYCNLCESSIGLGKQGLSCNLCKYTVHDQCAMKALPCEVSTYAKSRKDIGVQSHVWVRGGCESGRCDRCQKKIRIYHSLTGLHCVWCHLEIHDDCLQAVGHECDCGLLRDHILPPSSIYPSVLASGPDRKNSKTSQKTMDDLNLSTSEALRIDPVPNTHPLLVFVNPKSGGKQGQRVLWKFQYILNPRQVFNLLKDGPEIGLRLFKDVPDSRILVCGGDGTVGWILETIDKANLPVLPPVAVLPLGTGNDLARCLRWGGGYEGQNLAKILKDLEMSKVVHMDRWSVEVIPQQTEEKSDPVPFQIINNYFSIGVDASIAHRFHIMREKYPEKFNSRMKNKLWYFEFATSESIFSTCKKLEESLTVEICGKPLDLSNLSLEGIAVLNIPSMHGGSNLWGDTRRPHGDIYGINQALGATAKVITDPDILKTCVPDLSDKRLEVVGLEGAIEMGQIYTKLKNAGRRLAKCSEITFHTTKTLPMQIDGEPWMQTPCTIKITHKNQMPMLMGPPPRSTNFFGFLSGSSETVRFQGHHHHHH

Human venous whole blood = assay: Human whole blood IFN-γ assay; format: cell-based; conditions: normalized to 3 μM reference compound with anti-CD3 plus anti-CD28 as 100% activation;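 also: blood from healthy donors exposed to compound for 1 h before stimulation with anti-CD3 and anti-CD28 at 1 µg/mL each, IFN-γ quantified in supernatant by AlphaLISA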
Experimental: Human Whole Blood IFN-γ Assay
Human venous whole blood (22.5 μL per well), obtained from healthy donors, was pre-treated with compounds for one hour at 37° C. in a humidified 95% air/5% CO2 incubator. The blood was stimulated with 2.5 μL anti-human CD3 and anti-CD28 mAb at a final concentration of 1 μg/mL each for 24 hours at 37° C. IFN-γ in the supernatants was measured using AlphLISA kit (Cat # AL217).

[1] = Homo sapiens, 24 h, human whole blood, read-out: INFg Whole Blood Normalized Agonist EC50
[2] = human whole blood, read-out: INFg Whole Blood Normalized Agonist EC50

Compound: C[C@@H]1CN(c2cc(=O)n(C)c3ccc(C#N)nc23)[C@@H](C)CN1C(c1ccc(Cl)cc1)c1cccc(F)n1 (single isomer, unassigned) [Example 195]
- EC50 (naïve human CD8 T cells): 9.9 nM
- IC50 (human DGKζ): 1100 nM
- IC50 (human DGKα): 1100 nM
- EC50 (Human venous whole blood; [1]): 1800 nM

Compound: C[C@@H]1CN(c2cc(=O)n(C)c3ccc(C#N)nc23)[C@@H](C)CN1C(c1ccc(Cl)cc1)c1cccc(F)n1 (single isomer, unassigned) [Example 196]
- EC50 (naïve human CD8 T cells): 47 nM
- IC50 (human DGKζ): 3000 nM
- IC50 (human DGKα): 1300 nM
- EC50 (Human venous whole blood; [2]): 1400 nM

Compound: C[C@@H]1CN(c2cc(=O)n(C)c3ccc(C#N)nc23)[C@@H](C)CN1C(c1ccc(F)cc1)c1ccccn1 (single isomer, unassigned) [Example 198]
- EC50 (naïve human CD8 T cells): 21 nM
- IC50 (human DGKζ): 870 nM
- IC50 (human DGKα): 240 nM
- EC50 (Human venous whole blood; [2]): 590 nM

Compound: Cc1ccc(C(c2ccc(Cl)cn2)N2C[C@H](C)N(c3cc(=O)n(C)c4ccc(C#N)nc34)C[C@H]2C)cc1 (single isomer, unassigned) [Example 199]
- EC50 (naïve human CD8 T cells; Homo sapiens, T-cell, 20 h): 61 nM
- IC50 (human DGKζ): 100 nM
- IC50 (human DGKα): 100 nM
- EC50 (Human venous whole blood; [2]): 250 nM

Compound: Cc1ccc(C(c2ccc(Cl)cn2)N2C[C@H](C)N(c3cc(=O)n(C)c4ccc(C#N)nc34)C[C@H]2C)cc1 (single isomer, unassigned) [Example 200]
- EC50 (naïve human CD8 T cells): 40 nM
- IC50 (human DGKζ): 200 nM
- IC50 (human DGKα): 61 nM
- EC50 (Human venous whole blood; [2]): 540 nM

Compound: C[C@@H]1CN(c2cc(=O)n(C)c3ccc(C#N)nc23)[C@@H](C)CN1C(c1ccc(Cl)cc1)c1ccc(Cl)cn1 (single isomer, unassigned) [Example 201]
- EC50 (naïve human CD8 T cells): 31 nM
- IC50 (human DGKζ): 790 nM
- IC50 (human DGKα): 450 nM
- EC50 (Human venous whole blood; [1]): 500 nM

Compound: C[C@@H]1CN(c2cc(=O)n(C)c3ccc(C#N)nc23)[C@@H](C)CN1C(c1ccc(Cl)cc1)c1ccc(Cl)cn1 (single isomer, unassigned) [Example 202]
- EC50 (naïve human CD8 T cells): 8.3 nM
- IC50 (human DGKζ): 490 nM
- IC50 (human DGKα): 110 nM
- EC50 (Human venous whole blood; [2]): 380 nM

Compound: Cc1cccc(C(c2ccc(F)cc2)N2C[C@H](C)N(c3cc(=O)n(C)c4ccc(C#N)nc34)C[C@H]2C)n1 (single isomer, unassigned) [Example 203]
- EC50 (naïve human CD8 T cells): 32 nM
- IC50 (human DGKζ): 29 nM
- IC50 (human DGKα): 190 nM
- EC50 (Human venous whole blood; [2]): 290 nM

Compound: Cc1cccc(C(c2ccc(F)cc2)N2C[C@H](C)N(c3cc(=O)n(C)c4ccc(C#N)nc34)C[C@H]2C)n1 (single isomer, unassigned) [Example 204]
- EC50 (naïve human CD8 T cells): 12 nM
- IC50 (human DGKζ): 220 nM
- IC50 (human DGKα): 1300 nM
- EC50 (Human venous whole blood; [2]): 620 nM

Compound: CCOc1ncccc1C(c1ccc(F)cc1)N1C[C@H](C)N(c2cc(=O)n(C)c3ccc(C#N)nc23)C[C@H]1C (single isomer, unassigned) [Example 205]
- EC50 (naïve human CD8 T cells): 150 nM
- IC50 (human DGKζ): 670 nM
- IC50 (human DGKα): 37000 nM
- EC50 (Human venous whole blood; [1]): 990 nM

Compound: CCOc1ncccc1C(c1ccc(F)cc1)N1C[C@H](C)N(c2cc(=O)n(C)c3ccc(C#N)nc23)C[C@H]1C (single isomer, unassigned) [Example 206]
- EC50 (naïve human CD8 T cells): 39 nM
- IC50 (human DGKζ): 440 nM
- IC50 (human DGKα): 24000 nM
- EC50 (Human venous whole blood; [2]): 1400 nM

Compound: CC(C)Oc1ncccc1C(c1ccc(F)cc1)N1C[C@H](C)N(c2cc(=O)n(C)c3ccc(C#N)nc23)C[C@H]1C (single isomer, unassigned) [Example 207]
- EC50 (naïve human CD8 T cells; Homo sapiens, T-cell, 20 h): 430 nM
- IC50 (human DGKζ): 3100 nM
- IC50 (human DGKα): 71000 nM
- EC50 (Human venous whole blood; [2]): 3500 nM

Compound: CCc1cc(F)ccc1C(c1ccc(Cl)cc1)N1C[C@H](C)N(c2cc(=O)n(C)c3ccc(C#N)nc23)C[C@H]1C (single isomer, unassigned) [Example 225]
- EC50 (naïve human CD8 T cells; Homo sapiens, T-cell, 20 h): 61 nM
- IC50 (human DGKζ): 570 nM
- EC50 (Human venous whole blood; [2]): 7600 nM

Compound: C[C@@H]1CN(c2cc(=O)n(C)c3ccc(C#N)nc23)[C@@H](C)CN1C(c1ccc(F)cc1)c1ccccc1F (stereo partly drawn) [Example 284, 8-[(2S,5R)-4-[(2-fluorophenyl)(4-fluorophenyl)methyl]-2,5-dimethylpiperazin-1-yl]-5-methyl-6-oxo-5,6-dihydro-1,5-naphthyridine-2-carbonitrile]
- EC50 (naïve human CD8 T cells; Homo sapiens, T-cell, 20 h): 36 nM
- EC50 (Human venous whole blood; Homo sapiens, 24 h, read-out: INFg Whole Blood Normalized Agonist EC50, human whole blood): 780 nM
